Measurements reported in PMC10796410 (Cancer Chemotherapy and Pharmacology, 2023).
Several values for one entry are separate records, joined by “and”; a condition that tells them apart may be missing. Identical values can stand only once. Like-named read-outs stand apart in the source and are kept apart here.

How the values were obtained:
OAT3 = system: OAT3; design: method as in earlier work; details: in vitro studies; cited from earlier work
OCT2 = system: OCT2; design: method as in earlier work; details: in vitro studies; cited from earlier work
[1] = Plasma pharmacokinetics of olaparib in rats after a single oral dose, alone or with metformin (UPLC-MS/MS, non-compartmental); type: in vivo, Wistar rats; details: for concentration at 0.083 h / concentration at 0.167 h / concentration at 0.333 h / concentration at 0.5 h / concentration at 0.75 h / concentration at 1 h / concentration at 2 h / concentration at 3 h / concentration at 4 h / concentration at 6 h / concentration at 8 h / concentration at 10 h / concentration at 12 h / concentration at 24 h / AUC(0-inf) / AUC(0-t) / Cmax / Tmax / Vd/F / k el: male, Wistar, rat, plasma; for concentration at 0.083 h / concentration at 0.167 h / concentration at 0.333 h / concentration at 0.5 h / concentration at 0.75 h / concentration at 1 h / concentration at 2 h / concentration at 3 h / concentration at 4 h / concentration at 6 h / concentration at 8 h / concentration at 10 h / concentration at 12 h / concentration at 24 h: oral, group mean, read-out: Cave_ola; for AUC(0-inf) / AUC(0-t) / Cmax / Tmax / Vd/F / k el: po; for AUC(0-inf) / AUC(0-t) / Cmax / Tmax / Vd/F / k el / Cl/F / t0.5: rat plasma, n = 8, mean ± SD
Description: All applicable international, national, and/or institutional guidelines for the care and use of animals were followed. The animals were given a standard diet and water ad libitum, and the experimental protocol for this study was approved by the Local Ethics Committee (No. 45/2022, of 27 May 2022), Poznań University of Life Sciences, Department of Animal Physiology and Biochemistry, Wołyńska 35, 60–637 Poznań, Poland. Adult male Wistar rats (weight 380–530 g) were used in the study. The animals were maintained under standard breeding conditions with a 12/12 h light–dark cycle (lights on at 06.00, lights off at 18.00) at constant room temperature (23 ± 2 °C), relative humidity of 55 ± 10% and given ad libitum access to food and water. The animals were allowed to acclimatize for a week before the beginning of the experiments. The rats were divided into three groups. […] The solution for oral metformin administration was prepared in saline at a single dose of 100 mg/kg. Drugs were orally administered to rats by gavage between 7:00 a.m. and 8:00 a.m. […] The blood samples were centrifuged at 5000 rpm for 10 min, and the plasma was transferred to new centrifuge tubes and then stored at – 80 °C.
A Cortecs UPLC C18 column (2.1 × 50 mm, 1.6 µm, Waters Corporation, Milford, MA, USA) was used for chromatographic separation. The column temperature and injection volume were set at 40 °C and 1 µl, respectively. The mobile phase comprised acetonitrile (eluent A) and 2 mM ammonium acetate in water (eluent B) with 0.1% 98–100% formic acid. The flow rate was maintained at 0.3 ml/min. The gradient elution was as follows: 0–3 min, 5% A; […]; 3–5 min, linear from 5 to 95% A; 5–6 min, linear from 95 to 5% A. The mass spectrometer operated in the multiple reaction monitoring mode.
The maximum plasma concentration (Cmax) and the time to reach the Cmax (tmax) were obtained directly from the measured values. All of the above-mentioned parameters underwent statistical analysis.

[2] = system: epithelial ovarian cancer cell lines; details: drugs given separately or co-administered; cited from earlier work
BCRP = system: BCRP; design: method as in earlier work; details: in vitro studies; cited from earlier work
OCT1 = system: OCT1; design: method as in earlier work; details: in vitro studies; cited from earlier work
MATE1 = system: MATE1; design: method as in earlier work; details: in vitro studies; cited from earlier work
OATP1B1 = system: OATP1B1; design: method as in earlier work; details: in vitro studies; cited from earlier work
MATE2K = system: MATE2K; design: method as in earlier work; details: in vitro studies; cited from earlier work
[3] = 100 mg/kg, IIIOLA: olaparib 100 mg/kg b.w. oral single dose alone
[4] = 100 mg/kg, IMET+OLA: metformin 100 mg/kg b.w. + olaparib 100 mg/kg b.w. oral single dose
[5] = IIIOLA: olaparib 100 mg/kg b.w. oral single dose alone
[6] = IMET+OLA: metformin 100 mg/kg b.w. + olaparib 100 mg/kg b.w. oral single dose

concentration at 0.083 h ([1]; 100 mg/kg, t 0.083 h, IIIOLA (olaparib alone)): 1080 ng/mL
concentration at 0.167 h ([1]; 100 mg/kg, t 0.167 h, IIIOLA (olaparib alone)): 2220 ng/mL
concentration at 0.333 h ([1]; 100 mg/kg, t 0.333 h, IIIOLA (olaparib alone)): 3790 ng/mL
concentration at 0.5 h ([1]; 100 mg/kg, t 0.500 h, IIIOLA (olaparib alone)): 4590 ng/mL
concentration at 0.75 h ([1]; 100 mg/kg, t 0.750 h, IIIOLA (olaparib alone)): 4440 ng/mL
concentration at 1 h ([1]; 100 mg/kg, t 1 h, IIIOLA (olaparib alone)): 7110 ng/mL
concentration at 2 h ([1]; 100 mg/kg, t 2 h, IIIOLA (olaparib alone)): 6050 ng/mL
concentration at 3 h ([1]; 100 mg/kg, t 3 h, IIIOLA (olaparib alone)): 4140 ng/mL
concentration at 4 h ([1]; 100 mg/kg, t 4 h, IIIOLA (olaparib alone)): 528 ng/mL
concentration at 6 h ([1]; 100 mg/kg, t 6 h, IIIOLA (olaparib alone)): 1460 ng/mL
concentration at 8 h ([1]; 100 mg/kg, t 8 h, IIIOLA (olaparib alone)): 851 ng/mL
concentration at 10 h ([1]; 100 mg/kg, t 10 h, IIIOLA (olaparib alone)): 480 ng/mL
concentration at 12 h ([1]; 100 mg/kg, t 12 h, IIIOLA (olaparib alone)): 196 ng/mL
concentration at 24 h ([1]; 100 mg/kg, t 24 h, IIIOLA (olaparib alone)): 27.2 ng/mL
concentration at 0.083 h ([1]; t 0.083 h, IMET+OLA (metformin and olaparib)): 1530 ng/mL
concentration at 0.167 h ([1]; t 0.167 h, IMET+OLA (metformin and olaparib)): 4270 ng/mL
concentration at 0.333 h ([1]; t 0.333 h, IMET+OLA (metformin and olaparib)): 7190 ng/mL
concentration at 0.5 h ([1]; t 0.500 h, IMET+OLA (metformin and olaparib)): 7240 ng/mL
concentration at 0.75 h ([1]; t 0.750 h, IMET+OLA (metformin and olaparib)): 7770 ng/mL
concentration at 1 h ([1]; t 1 h, IMET+OLA (metformin and olaparib)): 7120 ng/mL
concentration at 2 h ([1]; t 2 h, IMET+OLA (metformin and olaparib)): 6220 ng/mL
concentration at 3 h ([1]; t 3 h, IMET+OLA (metformin and olaparib)): 4080 ng/mL
concentration at 4 h ([1]; t 4 h, IMET+OLA (metformin and olaparib)): 3200 ng/mL
concentration at 6 h ([1]; t 6 h, IMET+OLA (metformin and olaparib)): 1190 ng/mL
concentration at 8 h ([1]; t 8 h, IMET+OLA (metformin and olaparib)): 490 ng/mL
concentration at 10 h ([1]; t 10 h, IMET+OLA (metformin and olaparib)): 155 ng/mL
concentration at 12 h ([1]; t 12 h, IMET+OLA (metformin and olaparib)): 94.4 ng/mL
concentration at 24 h ([1]; t 24 h, IMET+OLA (metformin and olaparib)): 74.8 ng/mL
AUC(0-inf) [1, 3]: 28600 ng·h/mL
AUC(0-t) [1, 3]: 28300 ng·h/mL
Cmax [1, 3]: 8720 ± 6800 ng/mL
Tmax [1, 3]: 1.18 ± 0.91 h
Vd/F [1, 3]: 22.5 ± 24.8 L
k el [1, 3]: 0.000122 s⁻¹
AUC(0-inf) [1, 4]: 29000 ng·h/mL
AUC(0-t) [1, 4]: 28300 ng·h/mL
Cmax [1, 4]: 9420 ± 6330 ng/mL
Tmax [1, 4]: 1.11 ± 0.75 h
Vd/F [1, 4]: 12.5 ± 11.6 L
k el [1, 4]: 9.44e-05 s⁻¹
t0.5 [1, 5]: 4.79 ± 6.06 (126.5) h
t0.5 [1, 6]: 3.18 ± 2.28 (71.7) h
C_ola ([1]; t 0.750 h, IMET+OLA (metformin and olaparib), individual rats 9-16): 3217.4 ng/mL
C_ola ([1]; t 24 h, IIIOLA (olaparib alone), individual rats 1-8): 34.8 ng/mL and 36.4 ng/mL and 10.4 ng/mL
Structure (SMILES): O=C(c1cc(Cc2n[nH]c(=O)c3ccccc23)ccc1F)N1CCN(C(=O)C2CC2)CC1 [olaparib, Olaparib]
inhibition of OAT3 (OAT3): inhibits
inhibition of OCT2 (OCT2): inhibits
Cl/F [1, 5]: 7.84 ± 15.21 l/h and 7.84 ± 15.21 (193.9) l/h
Cl/F [1, 6]: 2.62 ± 2.07 l/h and 2.62 ± 2.07 (79.0) l/h
C_ola ([1]; t 0.083 h, IMET+OLA (metformin and olaparib), individual rats 9-16): 399.8 ng/mL and 205.5 ng/mL and 1282.8 ng/mL and 2905.9 ng/mL and 1816.4 ng/mL and 1671.7 ng/mL and 346.2 ng/mL and 3579.7 ng/mL
C_ola ([1]; t 0.167 h, IMET+OLA (metformin and olaparib), individual rats 9-16): 735.8 ng/mL and 409.9 ng/mL and 5081.5 ng/mL and 9225.7 ng/mL and 5056.5 ng/mL and 3857.8 ng/mL and 1362.6 ng/mL and 8409.9 ng/mL
C_ola ([1]; t 0.333 h, IMET+OLA (metformin and olaparib), individual rats 9-16): 1895.1 ng/mL and 1378.1 ng/mL and 6639.2 ng/mL and 14659.7 ng/mL and 8931.6 ng/mL and 11236.6 ng/mL and 1385.6 ng/mL and 11426.1 ng/mL
C_ola ([1]; t 0.500 h, IIIOLA (olaparib alone), individual rats 1-8): 3742.4 ng/mL and 535.2 ng/mL and 12507.8 ng/mL and 7237.7 ng/mL and 6302.7 ng/mL and 1652.9 ng/mL and 418.2 ng/mL and 8077.9 ng/mL
C_ola ([1]; t 0.500 h, IMET+OLA (metformin and olaparib), individual rats 9-16): 3714.2 ng/mL and 1709.6 ng/mL and 7002.5 ng/mL and 13973.1 ng/mL and 6376.6 ng/mL and 773.6 ng/mL and 17095.7 ng/mL
C_ola ([1]; t 0.750 h, IIIOLA (olaparib alone), individual rats 1-8): 3804.2 ng/mL and 2586.8 ng/mL and 15300.4 ng/mL and 11009.1 ng/mL and 7991.7 ng/mL and 1511.2 ng/mL and 355.6 ng/mL and 8277 ng/mL
C_ola ([1]; t 1 h, IIIOLA (olaparib alone), individual rats 1-8): 6130.9 ng/mL and 3469.6 ng/mL and 13706 ng/mL and 16348.7 ng/mL and 9042.2 ng/mL and 1418.9 ng/mL and 698.2 ng/mL and 6102.6 ng/mL
C_ola ([1]; t 2 h, IIIOLA (olaparib alone), individual rats 1-8): 8834.3 ng/mL and 2628.7 ng/mL and 19817.4 ng/mL and 10845 ng/mL and 3432.4 ng/mL and 1456.7 ng/mL and 45.1 ng/mL and 1370.2 ng/mL
C_ola ([1]; t 3 h, IIIOLA (olaparib alone), individual rats 1-8): 10275 ng/mL and 2662.1 ng/mL and 12843.4 ng/mL and 4820.1 ng/mL and 969 ng/mL and 1168.9 ng/mL and 6.7 ng/mL and 409.4 ng/mL
C_ola ([1]; t 4 h, IIIOLA (olaparib alone), individual rats 1-8): 437.9 ng/mL and 948.8 ng/mL and 197 ng/mL
C_ola ([1]; t 6 h, IIIOLA (olaparib alone), individual rats 1-8): 5403.6 ng/mL and 829.1 ng/mL and 4359.8 ng/mL and 822.4 ng/mL and 31.7 ng/mL and 206.3 ng/mL and 4.8 ng/mL and 35.7 ng/mL
C_ola ([1]; t 8 h, IIIOLA (olaparib alone), individual rats 1-8): 2408.4 ng/mL and 295.6 ng/mL and 2024.1 ng/mL and 243.9 ng/mL and 17.4 ng/mL and 116.3 ng/mL
C_ola ([1]; t 10 h, IIIOLA (olaparib alone), individual rats 1-8): 701.7 ng/mL and 75.4 ng/mL and 1071 ng/mL and 70.2 ng/mL
C_ola ([1]; t 12 h, IIIOLA (olaparib alone), individual rats 1-8): 362.3 ng/mL and 53.7 ng/mL and 337 ng/mL and 32.3 ng/mL
percentage of late apoptotic cells [2]: 5.1%
inhibition of BCRP (BCRP): inhibits
inhibition of OCT1 (OCT1): inhibits
inhibition of MATE1 (MATE1): inhibits
inhibition of OATP1B1 (OATP1B1): inhibits
inhibition of MATE2K (MATE2K): inhibits
